# Tested on: AVEFA, LOLMU, ALOMY, SETVI
# Experiment: Assay 3—Glasshouse assay for pinoxaden antagonism (grass species)
# Conditions: used with Axial (pinoxaden) + Adigor adjuvant
# Description: A suitable glasshouse assay/test, to determine whether or not the “first herbicide”, when in a salt-free form and when not contained within polymeric microparticles, antagonises the herbicidal activity of pinoxaden, is as follows.
# The troughs are watered appropriately and are not supplied with additional nutrients throughout the course of the test. […] The pinoxaden is typically used in a commercial formulation applied with recommended tank-mix adjuvants.
# Crop injury (e.g. to wheat) is recorded at both 7 and 14-16 days after application; weed efficacy is only recorded at 14-16 days after application. A visual, 0-100% assessment scale is used, where 0%=no visible effects and 100%=complete plant destruction.
# For example, dicamba can be applied at ca. 240 g/ha (or alternatively at from 100 to 140, e.g. ca. 120, g/ha), measured as the free acid; MCPA and/or 2,4-D can be applied at ca. 500 g/ha, measured as the free acid.
# Alternatively, application rates may be identified from journal, book and/or patent publications for the specific active ingredient under test.
# Antagonism of pinoxaden may then be determined by the application of Colby's formula:
# (Observed 1+Observed 2)−((Observed 1×Observed 2)/100),
# Where observed values are smaller than the calculated expected value, antagonism is deemed to have occurred.
row,Structure (SMILES),antagonism of pinoxaden grass-herbicidal activity (in words)
1,"COc1c(Cl)ccc(Cl)c1C(=O)O [dicamba acid, 3,6-dichloro-2-methoxybenzoic acid]","some reductions in pinoxaden herbicidal activity on the grassy weed species AVEFA, ALOMY and LOLMU"
2,"O=C(O)COc1ccc(Cl)cc1Cl [2,4-D acid, (2,4-dichlorophenoxy)acetic acid]","some reductions in pinoxaden herbicidal activity on the grassy weed species AVEFA, ALOMY, SETVI and LOLMU"
3,"Cc1cc(Cl)ccc1OCC(=O)O [MCPA acid, (4-chloro-2-methylphenoxy)acetic acid]","some reductions in pinoxaden herbicidal activity on the grassy weed species AVEFA, ALOMY and LOLMU"

# From US20140221206A1, “HERBICIDAL COMPOSITION COMPRISING POLYMERIC MICROPARTICLES CONTAINING A HERBICIDE” (SYNGENTA LIMITED, priority 2011, published 2014)
